Experiment: Recovered dose from pre-filled syringes emptied through 27G needle after storage, not resuspended (gas chromatography)
Format: physicochemical
Conditions: suspension in pre-filled syringes during storage
Description: Filling weight was 0.5 g with the suspension having a density of about 0.95 g/mL.
The syringes were stored horisontally at 5° C., 25° C./60% RH and 40° C./75% RH, respectively, for up to twelve months. […] The syringes were taken directly from storage and not resuspended, mixed or shaken before ejection and assaying.

Compound: CC(=O)[C@H]1CC[C@H]2[C@@H]3CC[C@H]4C[C@@H](O)CC[C@]4(C)[C@H]3CC[C@]12C [3-beta-hydroxy-5-alpha-pregnan-20-one]
- Primary particle size during storage: remained unchanged

— patent US20250041206A1, “Injectable Suspensions” (ASARINA PHARMA AB, priority 2017, published 2025)
